Laboratory results published in patent publication US5552389A, “Suppressory compositions against hepatic metastases of tumors” (Senju Pharmaceutical Co., Ltd., priority 1994, dated 1996).
Structures can show the parent of a compound that is named as a salt.

What was measured:
[1] = test system: AH60C cells; assay: Number of tumor nodules on the liver surface in the AH60C hepatic metastasis model in rats; type: in vivo, Male Donryu rats; AH60C cells derived from rat hepatoma; details: 5 mg/kg i.v. an hour before surgical invasion (laparothoractomy); 5×10^5 AH60C cells via portal vein; 3 weeks later; Group C (not treated) 27.2±30.0; p<0.01 (Mann-Whitney U)
Method: (§1) Using a model of hepatic metastasis of tumor, an experiment was conducted to determine a correlation of hepatic metastasis of tumor with a level of liver lipid peroxide (LPO). In addition, an experiment was effected on the Present Compound in terms of its suppressory effect of liver lipid peroxide (LPO) and suppressory effect on hepatic metastasis of tumor.
(§2) Male Donryu rats (ca. 10-weeks aged) were employed as an experimental animal, while AH60C cells (derived from rat hepatoma) were used as a tumor cell. The rats were divided into three groups, namely a laparothoractomy group (Group LT) undergoing intratracheal intubation, followed by thoraco-laparotomy for one hour, a laparotomy group (Group L) undergoing only laparotomy for one hour and a control group (Group C) undergoing laparotomy, followed by immediate closure of the abdomen. The rats were subjected to laparotomy under anesthesia with ether and Ketalar and given 5×10^5 of AH60C cells through the portal vein to inflict surgical invasion, followed by laparotomy three weeks later to determine the number of tumor nodules on the liver surface. In addition to this, the serum samples were drawn, while the liver and lung tissues were isolated, on Disease Days 1. 2 and 3 to determine their respective levels of lipid peroxide by the TBA method. […]

[2] = Acute toxicity (LD50) in rats; details: rat, in vivo
[3] = test system: liver lipid peroxide (LPO); assay: Level of liver lipid peroxide (LPO, TBA method) after surgical invasion (laparothoractomy) in rats; type: in vivo, Male Donryu rats; details: 5 mg/kg i.v. an hour before surgical invasion (laparothoractomy); 24 hours later; elevation significantly suppressed, p<0.05 (Mann-Whitney U)
Method: as §1, §2

Which “number of tumor nodules on the liver surface” value [1] does the source give for Cc1c(C)c2c(c(C)c1OP(=O)(O)OC1=C(O)[C@@H]([C@@H](O)CO)OC1=O)CCC(C)(CCCC(C)CCCC(C)CCCC(C)C)O2 (mixture of isomers) [EPC-K, potassium salt of a phosphoric acid diester of L-ascorbic acid and DL-α-tocopherol] here?
The value was 8.9±12.7.

What about the LD50 ([2]; iv) of the same compound?
The LD50 was at least 100 mg/kg.

What about the LD50 ([2]; po) of the same compound?
The LD50 was 5000 mg/kg.

What about the “level of liver lipid peroxide (LPO)” value [3] of the same compound?
The value was 18.9 ± 17.9 nmol/g.
